Experimental data as given in ChEMBL document CHEMBL4651402, “Screening of ~5500 FDA-approved drugs and clinical candidates for anti-SARS-CoV-2 activity” (2021).

Assays:
[1] = tested on: SARS-CoV-2; assay: microbe, parasite or virus in culture; type: functional, organism-based, Chlorocebus sabaeus, Vero C1008; conditions: Severe acute respiratory syndrome coronavirus 2, Vero C1008, 48 h
[2] = tested on: SARS-CoV-2; assay: microbe, parasite or virus in culture; conditions: Severe acute respiratory syndrome coronavirus 2, Vero C1008, 48 h
[3] = in vitro; conditions: chlorocebus sabaeus
[4] = Vero E6 (Vero C1008) cells, CC50
[5] = Vero E6 (Vero C1008) cells, pCC50

c1ccc2c(c1)Sc1ccccc1N2CC1CN2CCC1CC2 (stereo not given) [MEQUITAZINE]
IC50 ([1]; read-out: IC50): > 100 µM | IC50 ([1]; read-out: pIC50 (converted)): > 100 µM | IC50 [2]: 7.76 µM | IC50 ([2]; read-out: pIC50 (converted)): 7.76 µM | CC50 at 48 h [3, 4]: 7.76 µM | CC50 at 48 h [3, 5]: 7.76 µM

CN1CCC(CN2c3ccccc3Sc3ccccc32)C1 (stereo not given) [METHDILAZINE]
IC50 ([1]; read-out: IC50): > 100 µM | IC50 ([1]; read-out: pIC50 (converted)): > 100 µM | IC50 [2]: 16.2 µM | IC50 ([2]; read-out: pIC50 (converted)): 16.2 µM | CC50 at 48 h [3, 4]: 14.8 µM | CC50 at 48 h [3, 5]: 14.8 µM

CN1CCCC(CC2c3ccccc3Sc3ccccc32)C1 (stereo not given) [METHIXENE]
IC50 ([1]; read-out: IC50): > 100 µM | IC50 ([1]; read-out: pIC50 (converted)): > 100 µM | IC50 [2]: 9.55 µM | IC50 ([2]; read-out: pIC50 (converted)): 9.55 µM | CC50 at 48 h [3, 4]: 10.1 µM | CC50 at 48 h [3, 5]: 10 µM

COc1ccc2c(c1)N(CCCN(C)C)c1ccccc1S2 [METHOXYPROMAZINE]
IC50 ([1]; read-out: IC50): > 100 µM | IC50 ([1]; read-out: pIC50 (converted)): > 100 µM | IC50 [2]: > 20 µM | IC50 ([2]; read-out: pIC50 (converted)): > 20 µM | CC50 at 48 h [3, 4]: 14.1 µM | CC50 at 48 h [3, 5]: 14.1 µM

CCC1(CC)C(=O)NCC(C)C1=O (stereo not given) [METHYPRYLON]
IC50 ([1]; read-out: IC50): > 25.1 µM | IC50 ([1]; read-out: pIC50 (converted)): > 25.1 µM | IC50 [2]: 18.4 µM | IC50 ([2]; read-out: pIC50 (converted)): 18.2 µM | CC50 at 48 h [3, 4]: > 25.1 µM | CC50 at 48 h [3, 5]: > 25.1 µM

COc1cc(C(=O)OCCN2CCN(CCCN3c4ccccc4Sc4ccc(Cl)cc43)CC2)cc(OC)c1OC [METOFENAZATE]
IC50 ([1]; read-out: IC50): > 100 µM | IC50 ([1]; read-out: pIC50 (converted)): > 100 µM | IC50 [2]: 18.6 µM | IC50 ([2]; read-out: pIC50 (converted)): 18.6 µM | CC50 at 48 h [3, 4]: > 100 µM | CC50 at 48 h [3, 5]: > 100 µM

O=C(c1ccc(F)cc1)C1CCN(CCCn2c(=O)[nH]c3cc(Cl)ccc32)CC1 [MILENPERONE]
IC50 ([1]; read-out: IC50): > 100 µM | IC50 ([1]; read-out: pIC50 (converted)): > 100 µM | IC50 [2]: > 100 µM | IC50 ([2]; read-out: pIC50 (converted)): > 100 µM | CC50 at 48 h [3, 4]: 32.4 µM | CC50 at 48 h [3, 5]: 32.4 µM

COc1ccc2cc(-c3cc(-c4cc(Cl)cc(Cl)c4)nn3[C@@H](C)c3ccc(C(=O)NCCC(=O)O)cc3)ccc2c1 [MK-0893]
IC50 ([1]; read-out: IC50): > 100 µM | IC50 ([1]; read-out: pIC50 (converted)): > 100 µM | IC50 [2]: > 100 µM | IC50 ([2]; read-out: pIC50 (converted)): > 100 µM | CC50 at 48 h [3, 4]: ~18.8 µM | CC50 at 48 h [3, 5]: ~18.6 µM

NC(CO)(CO)CCc1ccc(Sc2cccc(OCc3ccccc3)c2)cc1Cl [MOCRAVIMOD]
IC50 ([1]; read-out: IC50): > 100 µM | IC50 ([1]; read-out: pIC50 (converted)): > 100 µM | IC50 [2]: 3.31 µM | IC50 ([2]; read-out: pIC50 (converted)): 3.31 µM | CC50 at 48 h [3, 4]: 3.06 µM | CC50 at 48 h [3, 5]: 3.02 µM

O=C1NC2CCCCN2C12CCN(CCCN1c3ccccc3CCc3ccc(Cl)cc31)CC2 (stereo not given) [MOSAPRAMINE]
IC50 ([1]; read-out: IC50): > 100 µM | IC50 ([1]; read-out: pIC50 (converted)): > 100 µM | IC50 [2]: 7.41 µM | IC50 ([2]; read-out: pIC50 (converted)): 7.41 µM | CC50 at 48 h [3, 4]: 8.13 µM | CC50 at 48 h [3, 5]: 8.13 µM

CCCCCCC(C)(C)c1cc(O)c2c(c1)OC(C)(C)C1CCC(=O)CC21 (stereo not given) [NABILONE]
IC50 ([1]; read-out: IC50): > 25.1 µM | IC50 ([1]; read-out: pIC50 (converted)): > 25.1 µM | IC50 [2]: 8.91 µM | IC50 ([2]; read-out: pIC50 (converted)): 8.91 µM | CC50 at 48 h [3, 4]: 11.1 µM | CC50 at 48 h [3, 5]: 11 µM

COc1ccc2c(c1)CCC(c1ccccc1)=C2c1ccc(OCCN2CCCC2)cc1 [NAFOXIDINE]
IC50 ([1]; read-out: IC50): > 100 µM | IC50 ([1]; read-out: pIC50 (converted)): > 100 µM | IC50 [2]: > 100 µM | IC50 ([2]; read-out: pIC50 (converted)): > 100 µM | CC50 at 48 h [3, 4]: 3.85 µM | CC50 at 48 h [3, 5]: 3.8 µM

CC1(C)CCC(c2ccc(Cl)cc2)=C(CN2CCN(c3ccc(C(=O)NS(=O)(=O)c4ccc(N[C@H](CCN5CCOCC5)CSc5ccccc5)c(S(=O)(=O)C(F)(F)F)c4)cc3)CC2)C1 [NAVITOCLAX]
IC50 ([1]; read-out: IC50): > 100 µM | IC50 ([1]; read-out: pIC50 (converted)): > 100 µM | IC50 [2]: > 100 µM | IC50 ([2]; read-out: pIC50 (converted)): > 100 µM | CC50 at 48 h [3, 4]: 4.73 µM | CC50 at 48 h [3, 5]: 4.68 µM

CC(Cc1ccc(O)c(O)c1)C(C)Cc1ccc(O)c(O)c1 (stereo not given) [NORDIHYDROGUAIARETIC ACID]
IC50 ([1]; read-out: IC50): > 100 µM | IC50 ([1]; read-out: pIC50 (converted)): > 100 µM | IC50 [2]: > 100 µM | IC50 ([2]; read-out: pIC50 (converted)): > 100 µM | CC50 at 48 h [3, 4]: 37.2 µM | CC50 at 48 h [3, 5]: 37.2 µM

CNCCC=C1c2ccccc2CCc2ccccc21 [NORTRIPTYLINE]
IC50 ([1]; read-out: IC50): > 100 µM | IC50 ([1]; read-out: pIC50 (converted)): > 100 µM | IC50 [2]: 15.9 µM | IC50 ([2]; read-out: pIC50 (converted)): 15.8 µM | CC50 at 48 h ([3]; vero c1008, CC50): 24 µM | CC50 at 48 h ([3]; vero c1008, pCC50): 24 µM
